Results: patent US20240374613A1, “BIOACTIVE MOLECULES FOR USE IN TREATING INSULIN RESISTANCE AND/OR RESTORING GLUCOSE HOMEOSTASIS” (PALTECH, priority 2021, published 2024)

What was measured:
[1] = test system: GLP-1r; conditions: DHT infusion 10 mg daily, one month after surgery
Method: (§1) The method was evaluated on 15 miniature pigs aged 5 years old (INRAE, UEPR, Saint-Gilles, France) and rendered insulin resistant after 3-4 months high fat high sucrose dict ingestion in excess according to already published data (Malbert et al., 2017b). The diet supplied 4024 kcal per kg of feed and was presented twice daily so that the animals could eat up to 150% of the recommended caloric intake (288 kcal/kg BW^0.75).
Once obese and insulin resistant, the animals were distributed into three groups of equal size (n=5 animals). One group served as control and was submitted only to a dummy implantation procedure including the initial GLP-1r PET imaging sequence using [68Ga]Ga-DO3A-VS-Cys40-Exendin-4. The second group was implanted during a laparoscopic procedure with a silicon catheter (2 mm OD) with its tip located at the portal sensor close to the minimum GLP-1r expression area according to the procedure described in 3.3. The terminal part of the catheter was bend at 90° to enter the periportal area. The catheter was secured at the entrance of the periportal cavity using a dacron surgical mesh (Biomesh P1, Cousin Bioserv Paris) glued to the silicon rubber prior to the implantation. During the implantation, the surgical mesh was glued to the outer layer of the portal vein using a surgical glue dispenser Glubran 2 and Glutack Cousin Bioserv Paris). […]

[2] = Method: as §1
(§2) Once obese and insulin resistant, the animals were distributed into three groups of equal size (n=5 animals). One group served as control and was submitted only to a dummy implantation procedure including the initial GLP-1r PET imaging sequence using [68Ga]Ga-DO3A-VS-Cys40-Exendin-4. The second group was implanted during a laparoscopic procedure with a silicon catheter (2 mm OD) with its tip located at the portal sensor close to the minimum GLP-1r expression area according to the procedure described in 3.3. The terminal part of the catheter was bend at 90° to enter the periportal area. The catheter was secured at the entrance of the periportal cavity using a dacron surgical mesh (Biomesh P1, Cousin Bioserv Paris) glued to the silicon rubber prior to the implantation. During the implantation, the surgical mesh was glued to the outer layer of the portal vein using a surgical glue dispenser Glubran 2 and Glutack Cousin Bioserv Paris). The opposite tip of the catheter exited between the shoulder of the animal and was connected to an elastomeric pump. The pump (Easypump, II, BBraun) delivered 2 mL per hour of a solution of dihydrotestosterone (Sigma, Paris) in sterile water/DMSO (100:5 V/V) so that 10 mg of dihydrotestosterone was infused daily. The amount of the active molecule was irrespective of the body weight (BW). The pump was located in a lateral pocket of a jacket Whose size was adjusted for obese Yucantan minipigs (Lomir, Canada) and wore by the animal for the duration of the experiment. The third group was implanted during a laparoscopic procedure with an implant delivering 100 μg of dihydrostestoterone daily (Belma Technologies, Belgium) irrespective of the weight of the animal. The implant was inserted in the periportal area and the insertion hole achieved on the mesenteric layer for insertion was closed by a patch of surgical mesh glued directly on the meso using a procedure similar that described above. The anesthesia and surgical approach used for laparoscopy were identical those already described by Malbert et al. (Malbert et al., 2017b).
The protocol was described in FIG. 5 and consisted of two periods; one during which an obese insulin resistant status is achieved followed by a one-month post-surgery period during which DHT was slowly release according to the method of delivery described above. For control and implant groups only, the experimental period was also extended for an additional month to evaluate the capacity of the method to achieve a sustained effect on glucose metabolism. This extended period was not achievable on catheter implanted animals due to ethical constraints. A one-week recovery period is inserted in the protocol after the initial PET GLP-1r scan and after the surgery. The data acquired during these periods were discarded from further analysis.
Distribution of GLP-1r along the portal vein and within the abdominal organs was obtained during an initial PET scan after the administration of 25 to 40 MBq [68Ga]Ga-DO3A-VS-Cys40-Exendin-4 according to the above section 3 of the examples. The portal area of low GLP-1r expression was identified and used for insertion of either the catheter tip or the DHT implant according to the above section 3.3 relating to laparoscopic access. The anesthesia and overall procedure for imaging is identical that described by Malbert et al (Malbert et al., 2020b). The same PET scan procedure was repeated one month after the surgical procedure allowing to compare between groups and within subjects of the same group the changes in GLP-1r distribution.

[3] = DHT infusion 10 mg/24 H, mean ± SD, N=5
Method: as §1, §2
The protocol was described in FIG. 5 and consisted of two periods; one during which an obese insulin resistant status is achieved followed by a one-month post-surgery period during which DHT was slowly release according to the method of delivery described above. […]

[4] = test system: muscle protein synthesis; conditions: effect in muscle protein synthesis; in the form of gel applied cutaneous; cited from earlier work
[5] = DHT infusion 10 mg/24 H, periportal catheter, first 30 days after surgery, mean ± SD, N=5
[6] = DHT infusion 10 mg/24 H, 30 days after the implantation surgery, mean ± SD, N=5
[7] = periportal catheter, first 30 days after surgery
[8] = 30 days after the implantation surgery

## C[C@]12CCC(=O)C[C@@H]1CC[C@@H]1[C@@H]2CC[C@]2(C)[C@@H](O)CC[C@@H]12 [DHT infusion, dihydrotestosterone]
[1]
  Portal GLP-1r binding potential/volume of distribution compared to control: more than doubled
[1]; ns vs control
  Non portal (pancreatic) GLP-1r binding: 4.8±0.41
[2]; [5]
  Abdominal fat: 38.1 ± 0.7!^ % of BW
  Fat: 36.8 ± 0.5 % of BW
  Liver to spleen ratio: 1.1 ± 0.02
  Mean arterial pressure: 79 ± 3.1 mmHg
  Muscle: 6.5 ± 1.0 % of BW
  Pulse rate: 104 ± 8.7 min⁻¹
  Systolic blood pressure: 55 ± 2.1 mmHg
[2]; [6]
  Clamp plasma insulin: 501 ± 14.1 μU/mL
  Fasting plasma glucose: 4.2 ± 0.23 mmol/L
  Fasting plasma insulin: 2.1 ± 0.21 μU/mL
  Mean plasma glucose at clamp plateau: 4.2 ± 0.36 mmol/L
[2]; DHT infusion 10 mg/24 H, euglycemic hyperinsulinemic clamp plateau, 30 days after the implantation surgery, mean ± SD, N=5
  Insulin sensitivity: 6.8 ± 0.20 dL/kg · min/μMU/mL*1E−3
[3]; [7]
  Body weight: 80.8 ± 2.0 kg
  Daily ingestion: 8.6 ± 0.03 g/kg · day
[3]; [8]
  Basal metabolic rate: 0.0079 ± 0.0007 kcal/min/kg
  Fasting glucose oxidation rate: 1.8 ± 0.10 mg/min · kg

## C[C@]12CCC(=O)C[C@@H]1CC[C@@H]1[C@@H]2CC[C@]2(C)[C@@H](O)CC[C@@H]12 [DHT, dihydrotestosterone]
[4]
  ED50: 20 mg daily
[2]; DHT treated animals (both groups), fasting, 30 days after surgery
  Circulating insulin as fraction of the insulinemia measured in control group: 1/3
[2]; euglycemic hyperinsulinemic clamp, irrespective of the DHT group
  Whole-body insulin sensitivity change compared to control: one third increase
